Among the data in patent US20110086884A1, “BARIUM SALT OF BENZIMIDAZOLE DERIVATIVE” (priority 2003, published 2011) are hygroscopicity values, retold here.

The nature of the data set: hygroscopicity of the solid salt. In kind it is physicochemical. Particulars: both crystalline and amorphous forms.

SMILES strings stand for the structures.

In the case of `COc1ccc2[nH]c([S@@+]([O-])Cc3ncc(C)c(OC)c3C)nc2c1` [(S)-omeprazole barium, (S)-5-methoxy-2-[[(4-methoxy-3,5-dimethyl-2-pyridinyl)-methyl]sulfinyl]-1H-benzimidazole], the hygroscopicity result was “non-hygroscopic”.
